{
  "source": "ChEMBL document CHEMBL1144970",
  "about": "“Protective effects of steroid saponins from Paris polyphylla var. yunnanensis on ethanol- or indomethacin-induced gastric mucosal lesions in rats: structural requirement for activity and mode of action” (Bioorg Med Chem Lett, 2003)",
  "key": {"Rattus norvegicus [1]": {"system": "Rattus norvegicus", "assay": "Percent inhibition of gastric lesions induced by ethanol was measured, after administration of 2.5 mg/kg po in rats", "type": "functional", "details": "Stomach"}, "Rattus norvegicus [2]": {"system": "Rattus norvegicus", "assay": "Volume of the gastric juice (Control value = 4.9+/-0.3) of stomach content of pylorus ligated rats was measured (10 mg/kg po of the Compound was administered 1 hr before the pylorus ligation)", "type": "functional"}, "Rattus norvegicus [3]": {"system": "Rattus norvegicus", "assay": "Percent inhibition of gastric lesions (length = 31.4+/-3.8) induced by ethanol was measured, after administration of 10 mg/kg po in L-NAME-pretreated rats", "type": "functional", "details": "Stomach"}, "Rattus norvegicus [4]": {"system": "Rattus norvegicus", "assay": "Reduction in length (control value = 124.3+/-7.8) of gastric lesions induced by ethanol was measured, after administration of 5 mg/kg po in indomethacin-pretreated rats", "type": "functional, Stomach"}, "Rattus norvegicus [5]": {"system": "Rattus norvegicus", "assay": "Acid output from the stomach (control value = 119.7+/-11.7) in pylorus ligated rats (10 mg/kg po of the Compound was administered 1 hr before the pylorus ligation)", "type": "functional"}, "Rattus norvegicus [6]": {"system": "Rattus norvegicus", "assay": "Percent inhibition of gastric lesions (length = 61.5+/-4.4) induced by ethanol was measured, after administration of 10 mg/kg po in NEM-pretreated rats", "type": "functional", "details": "Stomach"}, "Rattus norvegicus [7]": {"system": "Rattus norvegicus", "assay": "pH of the gastric juice (Control value = 1.44+/-0.01) of stomach content of pylorus ligated rats was measured ( 5 mg/kg po of the Compound was administered 1 hr before the pylorus ligation)", "type": "ADME, organism-based", "parameters": "dose 5 mg/kg, route oral", "details": "in vivo"}, "Rattus norvegicus [8]": {"system": "Rattus norvegicus", "assay": "Reduction in length (control value = 126.1+/-5.7) of gastric lesions induced by ethanol was measured, after administration of 10 mg/kg po in rats", "type": "functional, Stomach"}, "Rattus norvegicus [9]": {"system": "Rattus norvegicus", "assay": "Percent inhibition of gastric lesions (length = 96.1+/-13.7) induced by ethanol was measured, after administration of 10 mg/kg po in endomethacin pretreated rats", "type": "functional", "details": "Stomach"}, "Rattus norvegicus [10]": {"system": "Rattus norvegicus", "assay": "Percent inhibition of gastric lesions (length = 102.2+/-8.1) induced by ethanol was measured, after administration of 5 mg/kg po in endomethacin pretreated rats", "type": "functional", "details": "Stomach"}, "Rattus norvegicus [11]": {"system": "Rattus norvegicus", "assay": "Percent inhibition of gastric lesions induced by endomethacin was measured, after administration of 2.5 mg/kg po in rats", "type": "functional", "details": "Stomach"}, "Rattus norvegicus [12]": {"system": "Rattus norvegicus", "assay": "Acid output from the stomach (control value = 119.7+/-11.7) in pylorus ligated rats (5 mg/kg po of the Compound was administered 1 hr before the pylorus ligation)", "type": "functional"}, "Rattus norvegicus [13]": {"system": "Rattus norvegicus", "assay": "Reduction in length (control value = 188.7+/-10.5) of gastric lesions induced by ethanol was measured, after administration of 5 mg/kg po in L-NAME-pretreated rats", "type": "functional, Stomach"}, "Rattus norvegicus [14]": {"system": "Rattus norvegicus", "assay": "pH of the gastric juice (Control value = 1.44+/-0.01) of stomach content of pylorus ligated rats was measured (10 mg/kg po of the Compound was administered 1 hr before the pylorus ligation)", "type": "ADME, organism-based", "details": "in vivo"}, "Rattus norvegicus [15]": {"system": "Rattus norvegicus", "assay": "Reduction in length (control value = 169.6+/-1.9) of gastric lesions induced by ethanol was measured, after administration of 10 mg/kg po in NEM-pretreated rats", "type": "functional, Stomach"}, "Rattus norvegicus [16]": {"system": "Rattus norvegicus", "assay": "Percent inhibition of gastric lesions (length = 35.7+/-2.3) induced by ethanol was measured, after administration of 5 mg/kg po in rats", "type": "functional", "details": "Stomach"}, "Rattus norvegicus [17]": {"system": "Rattus norvegicus", "assay": "Percent inhibition of gastric lesions (length = 92.3+/-9) induced by ethanol was measured, after administration of 5 mg/kg po in NEM-pretreated rats", "type": "functional", "details": "Stomach"}, "Rattus norvegicus [18]": {"system": "Rattus norvegicus", "assay": "Reduction in length (control value = 206.7+/-6.3) of gastric lesions induced by endomethacin was measured, after administration of 5 mg/kg po NEM-pretreated in rats", "type": "functional, Stomach"}, "Rattus norvegicus [19]": {"system": "Rattus norvegicus", "assay": "Volume of the gastric juice (Control value = 4.9+/-0.3) of stomach content of pylorus ligated rats was measured (5 mg/kg po of the Compound was administered 1 hr before the pylorus ligation)", "type": "functional"}, "Rattus norvegicus [20]": {"system": "Rattus norvegicus", "assay": "Percent inhibition of gastric lesions (length = 60.8+/-11.6) induced by ethanol was measured, after administration of 5 mg/kg po in L-NAME-pretreated rats", "type": "functional", "details": "Stomach"}, "Rattus norvegicus [21]": {"system": "Rattus norvegicus", "assay": "Reduction in length (control value = 70.8+/-5.3) of gastric lesions induced by endomethacin was measured, after administration of 5 mg/kg po in rats", "type": "functional, Stomach"}, "Rattus norvegicus [22]": {"system": "Rattus norvegicus", "assay": "Reduction in length (control value = 124.3+/-7.8) of gastric lesions induced by ethanol was measured, after administration of 10 mg/kg po in indomethacin-pretreated rats", "type": "functional, Stomach"}, "Rattus norvegicus [23]": {"system": "Rattus norvegicus", "assay": "Percent inhibition of gastric lesions induced by endomethacin was measured, after administration of 10 mg/kg po in rats", "type": "functional", "details": "Stomach"}, "Rattus norvegicus [24]": {"system": "Rattus norvegicus", "assay": "Reduction in length (control value = 70.8+/-5.3) of gastric lesions induced by endomethacin was measured, after administration of 2.5 mg/kg po in rats", "type": "functional, Stomach"}, "Rattus norvegicus [25]": {"system": "Rattus norvegicus", "assay": "Percent inhibition of gastric lesions (length = 15.3+/-2.9) induced by ethanol was measured, after administration of 10 mg/kg po in rats", "type": "functional", "details": "Stomach"}, "Rattus norvegicus [26]": {"system": "Rattus norvegicus", "assay": "Percent inhibition of gastric lesions induced by ethanol was measured, after administration of 5 mg/kg po in rats", "type": "functional", "details": "Stomach"}, "Rattus norvegicus [27]": {"system": "Rattus norvegicus", "assay": "Reduction in length (control value = 70.8+/-5.3) of gastric lesions induced by endomethacin was measured, after administration of 10 mg/kg po in rats", "type": "functional, Stomach"}, "Rattus norvegicus [28]": {"system": "Rattus norvegicus", "assay": "Percent inhibition of gastric lesions induced by ethanol was measured, after administration of 10 mg/kg po in rats", "type": "functional", "details": "Stomach"}, "Rattus norvegicus [29]": {"system": "Rattus norvegicus", "assay": "Percent inhibition of gastric lesions induced by endomethacin was measured, after administration of 5 mg/kg po in rats", "type": "functional", "details": "Stomach"}, "Rattus norvegicus [30]": {"system": "Rattus norvegicus", "assay": "Reduction in length (control value = 126.1+/-5.7) of gastric lesions induced by ethanol was measured, after administration of 2.5 mg/kg po in rats", "type": "functional, Stomach"}, "Rattus norvegicus [31]": {"system": "Rattus norvegicus", "assay": "Reduction in length (control value = 169.6+/-1.9) of gastric lesions induced by ethanol was measured, after administration of 5 mg/kg po in NEM-pretreated rats", "type": "functional, Stomach"}, "Rattus norvegicus [32]": {"system": "Rattus norvegicus", "assay": "Reduction in length (control value = 126.1+/-5.7) of gastric lesions induced by ethanol was measured, after administration of 5 mg/kg po in rats", "type": "functional, Stomach"}},
  "data": [
    {"smiles": "C[C@@H]1CC[C@@]2(OC1)OC1C[C@H]3[C@@H]4CC=C5C[C@@H](O[C@@H]6O[C@H](CO)[C@@H](O[C@@H]7O[C@@H](CO)[C@H](O)[C@H]7O)[C@H](O)[C@H]6O[C@@H]6O[C@@H](C)[C@H](O)[C@@H](O)[C@H]6O)CC[C@]5(C)[C@H]4CC[C@]3(C)C1[C@@H]2C", "note": "(some centres not stated)", "values": [
      {"measurement": "inhibition in vivo at 2.5 mg/kg", "setting": "Rattus norvegicus [1]", "result": 39.7, "unit": "%"},
      {"measurement": "Volume", "setting": "Rattus norvegicus [2]", "result": 3.6, "unit": "ml 4hr-1"},
      {"measurement": "inhibition in vivo at 10 mg/kg", "setting": "Rattus norvegicus [3]", "result": 83.4, "unit": "%"},
      {"measurement": "Length", "setting": "Rattus norvegicus [4]", "result": 102, "unit": "mm"},
      {"measurement": "Acid output", "setting": "Rattus norvegicus [5]", "result": 82.1, "unit": "u equiv hr-1"},
      {"measurement": "inhibition in vivo at 10 mg/kg", "setting": "Rattus norvegicus [6]", "result": 63.7, "unit": "%"},
      {"measurement": "pH", "setting": "Rattus norvegicus [7]", "result": 1.47},
      {"measurement": "Length", "setting": "Rattus norvegicus [8]", "result": 11.4, "unit": "mm"},
      {"measurement": "inhibition in vivo at 10 mg/kg", "setting": "Rattus norvegicus [9]", "result": 22.7, "unit": "%"},
      {"measurement": "inhibition in vivo at 5 mg/kg", "setting": "Rattus norvegicus [10]", "result": 17.8, "unit": "%"},
      {"measurement": "inhibition in vivo at 2.5 mg/kg", "setting": "Rattus norvegicus [11]", "result": 60.6, "unit": "%"},
      {"measurement": "Acid output", "setting": "Rattus norvegicus [12]", "result": 100.5, "unit": "u equiv hr-1"},
      {"measurement": "Length", "setting": "Rattus norvegicus [13]", "result": 60.8, "unit": "mm"},
      {"measurement": "pH", "setting": "Rattus norvegicus [14]", "result": 1.48},
      {"measurement": "Length", "setting": "Rattus norvegicus [15]", "result": 31.4, "unit": "mm"},
      {"measurement": "inhibition in vivo at 5 mg/kg", "setting": "Rattus norvegicus [16]", "result": 69.3, "unit": "%"},
      {"measurement": "inhibition in vivo at 5 mg/kg", "setting": "Rattus norvegicus [17]", "result": 45.6, "unit": "%"},
      {"measurement": "Length", "setting": "Rattus norvegicus [18]", "result": 61.5, "unit": "mm"},
      {"measurement": "Volume", "setting": "Rattus norvegicus [19]", "result": 4.4, "unit": "ml 4hr-1"},
      {"measurement": "inhibition in vivo at 5 mg/kg", "setting": "Rattus norvegicus [20]", "result": 67.8, "unit": "%"},
      {"measurement": "Length", "setting": "Rattus norvegicus [21]", "result": 23.2, "unit": "mm"},
      {"measurement": "Length", "setting": "Rattus norvegicus [22]", "result": 96.1, "unit": "mm"},
      {"measurement": "inhibition in vivo at 10 mg/kg", "setting": "Rattus norvegicus [23]", "result": 84.6, "unit": "%"},
      {"measurement": "Length", "setting": "Rattus norvegicus [24]", "result": 27.9, "unit": "mm"},
      {"measurement": "inhibition in vivo at 10 mg/kg", "setting": "Rattus norvegicus [25]", "result": 86.9, "unit": "%"},
      {"measurement": "inhibition in vivo at 5 mg/kg", "setting": "Rattus norvegicus [26]", "result": 63.1, "unit": "%"},
      {"measurement": "Length", "setting": "Rattus norvegicus [27]", "result": 10.9, "unit": "mm"},
      {"measurement": "inhibition in vivo at 10 mg/kg", "setting": "Rattus norvegicus [28]", "result": 91, "unit": "%"},
      {"measurement": "inhibition in vivo at 5 mg/kg", "setting": "Rattus norvegicus [29]", "result": 67.2, "unit": "%"},
      {"measurement": "Length", "setting": "Rattus norvegicus [30]", "result": 76.1, "unit": "mm"},
      {"measurement": "Length", "setting": "Rattus norvegicus [31]", "result": 92.3, "unit": "mm"},
      {"measurement": "Length", "setting": "Rattus norvegicus [32]", "result": 46.5, "unit": "mm"}
    ]}
  ]
}
